Source: patent publication US20180127464A1, “NOVEL EPHA4 INHIBITORS TARGETING ITS LIGAND BINDING DOMAIN” (Sanford-Burnham Medical Research Institute, priority 2015, published 2018)
One block for each molecule: values may come before it. Where a SMILES comes first, the peptide text is derived from it. [ ]: non-standard residue; d: D form. Trp(5-OH) = N[C@@H](Cc1c[nH]c2ccc(O)cc12)C(=O)O; Phe(4-Cl) = N[C@@H](Cc1ccc(Cl)cc1)C(=O)O; 4Pal = N[C@@H](Cc1ccncc1)C(=O)O; Ava = NCCCCC(=O)O

What was measured:
EphA4 LBD [1] = target: T1, EphA4 LBD (Homo sapiens, UniProt P54764); assay: Fluorescence polarization assay (FPA), displacement of FITC-labeled KYL peptide; assay type: binding; settings: PBS pH 7.2
Protocol: Fluorescence Polarization Assay (FPA):
The EphA4 binding KYL peptide ([…], Murai et al. Mol. Cell. Neurosci. 2003, 24:1000-1011) was labeled at the N-terminus with fluorescein isothiocyanate (FITC) and purified by HPLC. For competitive binding assays, 1 μL of 200 μM EphA4 LBD was pre-incubated with the tested compounds at various concentrations in 98 μL PBS (pH=7.2) in 96-well black plates at room temperature for 10 min, and then 1 μL of 500 μM FITC labeled EphA4 peptide was added to produce a final volume of 100 μL. The KYL and DMSO were incubated in each assay as positive and negative controls, respectively. After 30 min of incubation at room temperature, the polarization values in millipolarization units were measured at excitation/emission wavelengths of 480/535 nm with a multilabel plate reader (PerkinElmer, Waltham, Mass., USA). Ki value was determined by fitting the experimental data to a Sigmoidal dose-response (variable slope) nonlinear regression model (GraphPad Prism version 5.01 for Windows, GraphPad Software, San Diego, Calif., USA).
(§1) (B) EphA4-LBD was dissolved in 50 mM potassium phosphate buffer (pH 6.5), containing 100 mM NaCl. ITC were measured.
Target sequence in this assay (P54764 30-209 limits assumed): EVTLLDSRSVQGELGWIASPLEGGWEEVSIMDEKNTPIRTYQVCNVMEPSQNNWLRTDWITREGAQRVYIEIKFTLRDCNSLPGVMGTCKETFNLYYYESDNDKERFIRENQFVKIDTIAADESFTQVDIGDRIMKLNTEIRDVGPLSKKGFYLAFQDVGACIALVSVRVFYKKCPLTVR

EphA4 LBD [2] = target: T1, EphA4 LBD; assay: Isothermal titration calorimetry (ITC); assay type: binding; settings: 25° C., PBS with 10% DMSO
Protocol: Isothermal Titration Calorimetry (ITC):
(§2) isothermal titration calorimetry (ITC) to measure binding constant was performed on a Model ITC200 calorimeter from Microcal/GE Life Sciences. When indicated, measurements were performed in a reverse way—i.e., the protein was titrated into the compound solution. A total of 8 μl EphA4 solution (1.65 mM) was injected into the cell containing 165 µM of compound per injection. All titrations were performed at 25° C. in PBS buffer supplemented with 10% DMSO. Experimental data were analyzed using Microcal Origin software provided by the ITC manufacturer (Microcal).
as §1

SOD1(G93A)-mutant mice [3] = assay: In vivo efficacy in an animal model of ALS
Protocol: Equal number of SOD1(G93A)-mutant mice of the same gender from same litter were randomly divided into two groups (n=12).
FIG. 3. […] The data were analyzed using the Kaplan-Meier method. Animal studies. Equal number of SOD1(G93A)-mutant mice of the same gender from same litter were randomly divided into two groups. […] Animals were assessed daily for the time of onset of hind limb tremor and loss of splay reflex. The endpoint was designated as the point when the mouse could no longer roll over within 10 s after being pushed onto its side. At this stage, mice were killed. Disease onset and survival time were compared using the Kaplan-Meier method. […] Values are given as mean±SD. Preliminary BBB penetration and PK studies were performed by Agilux (Cambridge, Mass.) and in house.

EphA2 receptor = EphA2 receptor (Homo sapiens, UniProt P29317); assay: ITC with EphA2 receptor; assay type: binding; settings: same experimental conditions as EphA4 ITC
Protocol: as §2

SOD1(G93A)-mutant mice [4] = assay: Pilot study for toxicity and dose in SOD1(G93A)-mutant mice; assay type: in vivo; settings: 2 mice
15N-labeled EphA4-LBD = 15N-labeled EphA4-LBD (Homo sapiens, UniProt P54764); assay: 2D-[15N,1H]-HSQC NMR detection of binding; settings: 300 K
Source text: NMR spectra of ^15N-labeled EphA4-LBD were acquired on 700 MHz Bruker Avance spectrometer equipped with TCI cryoprobe. All NMR data were processed and analyzed using TOPSPIN2.1 (Bruker Biospin Corp., Billerica, Mass., USA) and SPARKY3.1 (University of California, San Francisco, Calif., USA).

[5] = target: EphA4 ligand binding domain (UniProt P54764); assay: ITC; grade legend: A < 1 µM
[6] = target: EphA4 ligand binding domain (UniProt P54764); assay: FPA, displacement of FITC-KYL peptide from EphA4 LBD; repeated experiments
EphA4-LBD mutant 159G = EphA4-LBD mutant 159G (UniProt P54764); assay: ITC
EphA4-LBD mutant 159A = EphA4-LBD mutant 159A (UniProt P54764); assay: ITC
[7] = target: EphA4 ligand binding domain (UniProt P54764); assay: ITC
[8] = target: EphA4 ligand binding domain (UniProt P54764); assay: FPA, displacement of FITC-KYL peptide from EphA4 LBD; grade legend: 5 µM ≤ C
EphA4 = EphA4 (Homo sapiens, UniProt P54764); settings: previously reported; cited from earlier work
Sequence of EphA4 (P54764 20-986, species assumed): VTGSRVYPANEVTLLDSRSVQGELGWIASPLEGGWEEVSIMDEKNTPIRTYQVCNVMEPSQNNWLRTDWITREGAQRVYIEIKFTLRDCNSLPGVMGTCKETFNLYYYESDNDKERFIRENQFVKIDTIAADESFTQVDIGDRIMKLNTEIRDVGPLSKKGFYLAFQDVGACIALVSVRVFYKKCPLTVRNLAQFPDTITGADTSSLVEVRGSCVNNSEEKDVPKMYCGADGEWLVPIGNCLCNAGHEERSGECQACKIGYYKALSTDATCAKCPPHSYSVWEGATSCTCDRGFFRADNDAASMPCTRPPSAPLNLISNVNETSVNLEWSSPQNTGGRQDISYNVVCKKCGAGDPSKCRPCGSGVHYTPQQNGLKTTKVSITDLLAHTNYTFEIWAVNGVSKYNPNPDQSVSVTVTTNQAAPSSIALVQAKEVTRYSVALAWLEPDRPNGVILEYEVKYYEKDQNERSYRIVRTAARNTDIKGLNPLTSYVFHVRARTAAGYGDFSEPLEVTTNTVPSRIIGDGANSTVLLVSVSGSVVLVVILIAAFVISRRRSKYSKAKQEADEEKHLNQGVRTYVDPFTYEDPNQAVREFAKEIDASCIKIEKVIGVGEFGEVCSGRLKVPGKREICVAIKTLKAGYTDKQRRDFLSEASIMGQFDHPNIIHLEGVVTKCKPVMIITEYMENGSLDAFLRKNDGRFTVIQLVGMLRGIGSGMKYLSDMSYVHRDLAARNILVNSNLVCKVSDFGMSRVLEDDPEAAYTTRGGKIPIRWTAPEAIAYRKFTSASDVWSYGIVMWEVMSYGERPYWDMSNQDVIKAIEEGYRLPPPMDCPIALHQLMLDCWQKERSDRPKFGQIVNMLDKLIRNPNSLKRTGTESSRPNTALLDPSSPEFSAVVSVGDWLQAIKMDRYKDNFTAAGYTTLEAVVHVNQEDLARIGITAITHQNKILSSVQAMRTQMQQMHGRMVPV

Sequence of EphA4 ligand binding domain (P54764 29-209 limits assumed): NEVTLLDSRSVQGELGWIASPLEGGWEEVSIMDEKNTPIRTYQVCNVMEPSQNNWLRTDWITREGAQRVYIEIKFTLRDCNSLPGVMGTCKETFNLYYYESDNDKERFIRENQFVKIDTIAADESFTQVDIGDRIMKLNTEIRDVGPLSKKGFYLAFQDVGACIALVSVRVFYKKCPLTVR
Sequence of EphA4-LBD mutant 159A (P54764 other isoform, or with tags, fused parts or gaps mutant limits assumed): as the sequence (P54764 29-209 limits assumed) above, with I31A counted along it
Sequence of 15N-labeled EphA4-LBD (P54764 30-209 limits assumed): as the sequence (P54764 30-209 limits assumed) above
Sequence of EphA2 receptor (P29317 24-976): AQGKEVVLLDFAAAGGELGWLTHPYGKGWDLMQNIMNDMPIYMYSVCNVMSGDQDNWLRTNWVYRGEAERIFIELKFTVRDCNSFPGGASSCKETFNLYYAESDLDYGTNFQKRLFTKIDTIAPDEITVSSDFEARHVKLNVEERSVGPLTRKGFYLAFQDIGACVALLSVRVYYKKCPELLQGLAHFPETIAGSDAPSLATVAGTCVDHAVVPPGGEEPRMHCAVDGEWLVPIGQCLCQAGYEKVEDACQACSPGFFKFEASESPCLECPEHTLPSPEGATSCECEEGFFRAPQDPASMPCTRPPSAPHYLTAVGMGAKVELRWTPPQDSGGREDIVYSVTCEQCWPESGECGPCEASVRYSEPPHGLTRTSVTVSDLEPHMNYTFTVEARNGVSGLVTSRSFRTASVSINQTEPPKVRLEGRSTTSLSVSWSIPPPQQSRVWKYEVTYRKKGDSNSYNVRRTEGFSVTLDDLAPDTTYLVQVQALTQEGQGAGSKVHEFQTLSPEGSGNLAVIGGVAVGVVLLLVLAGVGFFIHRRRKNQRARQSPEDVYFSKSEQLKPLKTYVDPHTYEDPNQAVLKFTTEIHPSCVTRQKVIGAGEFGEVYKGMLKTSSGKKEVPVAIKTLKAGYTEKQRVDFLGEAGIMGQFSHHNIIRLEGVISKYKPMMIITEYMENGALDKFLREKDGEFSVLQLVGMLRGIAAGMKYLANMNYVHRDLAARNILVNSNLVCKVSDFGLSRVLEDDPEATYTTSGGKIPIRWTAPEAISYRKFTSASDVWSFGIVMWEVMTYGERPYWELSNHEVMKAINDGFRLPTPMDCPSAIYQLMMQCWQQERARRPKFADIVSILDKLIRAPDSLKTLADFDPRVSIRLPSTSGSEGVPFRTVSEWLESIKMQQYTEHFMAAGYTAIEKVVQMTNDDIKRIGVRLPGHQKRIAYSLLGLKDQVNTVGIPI
Sequence of EphA4-LBD mutant 159G (P54764 other isoform, or with tags, fused parts or gaps mutant limits assumed): as the sequence (P54764 29-209 limits assumed) above, with I31G counted along it

Ki (EphA4 LBD [1]): 1000 to 5000 nM
Molecule: NCCCCC(=O)N[C@@H](Cc1c[nH]c2ccc(O)cc12)C(=O)N[C@@H](Cc1ccc(Cl)cc1)C(=O)N[C@@H](Cc1ccncc1)C(=O)N[C@H](Cc1c[nH]c2ccccc12)C(N)=O [Compound 4, 5-amino-N-((S)-1-((S)-1-((S)-1-((R)-1-amino-3-(1H-indol-3-yl)-1-oxopropan-2-ylamino)-1-oxo-3-(pyridin-4-yl)propan-2-ylamino)-3-(4-chlorophenyl)-1-oxopropan-2-ylamino)-3-(5-hydroxy-1H-indol-3-yl)-1-oxopropan-2-yl)pentanamide] (H-[Ava][Trp(5-OH)][Phe(4-Cl)][4Pal][dW]-NH2)

Ki (EphA4 LBD [1]): 1000 to 5000 nM
Kd (EphA4 LBD [2]): 1000 to 5000 nM
Molecule: NCCCC(=O)N[C@@H](Cc1c[nH]c2ccc(O)cc12)C(=O)N[C@@H](Cc1ccc(Cl)cc1)C(=O)N[C@@H](Cc1ccncc1)C(=O)NCCc1c[nH]c2ccccc12 [Compound 5, N-((S)-1-((S)-1-((S)-1-(2-(1H-indol-3-yl)ethylamino)-1-oxo-3-(pyridin-4-yl)propan-2-ylamino)-3-(4-chlorophenyl)-1-oxopropan-2-ylamino)-3-(5-hydroxy-1H-indol-3-yl)-1-oxopropan-2-yl)-4-aminobutanamide]

Ki (EphA4 LBD [1]): 1000 to 5000 nM
Molecule: NCCCC(=O)N[C@@H](Cc1c[nH]c2ccc(O)cc12)C(=O)N[C@@H](Cc1ccc(Cl)cc1)C(=O)N[C@@H](Cc1ccncc1)C(=O)NCCc1c[nH]c2ccc(F)cc12 [Compound 6, 4-amino-N-((S)-1-((S)-3-(4-chlorophenyl)-1-((S)-1-(2-(5-fluoro-1H-indol-3-yl)ethylamino)-1-oxo-3-(pyridin-4-yl)propan-2-ylamino)-1-oxopropan-2-ylamino)-3-(5-hydroxy-1H-indol-3-yl)-1-oxopropan-2-yl)butanamide]

Molecule: COc1ccc2[nH]cc(CCNC(=O)[C@H](Cc3ccncc3)NC(=O)[C@H](Cc3ccc(Cl)cc3)NC(=O)[C@H](Cc3c[nH]c4ccc(O)cc34)NC(=O)CCCN)c2c1 [Compound 7, 4-amino-N-((S)-1-((S)-3-(4-chlorophenyl)-1-((S)-1-(2-(5-methoxy-1H-indol-3-yl)ethylamino)-1-oxo-3-(pyridin-4-yl)propan-2-ylamino)-1-oxopropan-2-ylamino)-3-(5-hydroxy-1H-indol-3-yl)-1-oxopropan-2-yl)butanamide]
Effect on disease onset (SOD1(G93A)-mutant mice [3]; 30 mg/Kg i.p. daily in saline): without affecting the disease onset
Kaplan-Meier survival compared to control mice (SOD1(G93A)-mutant mice [3]; 30 mg/kg daily i.p.): increased survival
Average survival time from disease onset to end point (SOD1(G93A)-mutant mice [3]; 30 mg/kg daily i.p. from postnatal day 60, mean±SD, control 28.2±4.2 days, p<0.01): 38.6 ± 5.7 days
Average life span (SOD1(G93A)-mutant mice [3]; 30 mg/kg daily i.p. from postnatal day 60, n=12, mean±SD, control 134.3±7.2 days, p<0.01): 142.8 ± 6.9 days
Binding to the EphA2 receptor by ITC (EphA2 receptor): not observed
Signs of toxicity compared to control mice (SOD1(G93A)-mutant mice [4]; 30 mg/Kg daily i.p. for several weeks): no adverse sign of toxicity were observed
Survival in pilot study (SOD1(G93A)-mutant mice [4]; 30 mg/Kg daily i.p.): increased survival
Binding exchange regime by NMR (15N-labeled EphA4-LBD): slow exchange in the NMR time scale

Ki (EphA4 LBD [1]): 1000 to 5000 nM
Kd (EphA4 LBD [2]): 1000 to 5000 nM
Molecule: NCCCC(=O)N[C@@H](Cc1c[nH]c2ccc(O)cc12)C(=O)N[C@@H](Cc1ccc(Cl)cc1)C(=O)N[C@@H](Cc1ccncc1)C(=O)NCCc1c[nH]c2ccc(O)cc12 [Compound 8, 4-amino-N-((S)-1-((S)-3-(4-chlorophenyl)-1-((S)-1-(2-(5-hydroxy-1H-indol-3-yl)ethylamino)-1-oxo-3-(pyridin-4-yl)propan-2-ylamino)-1-oxopropan-2-ylamino)-3-(5-hydroxy-1H-indol-3-yl)-1-oxopropan-2-yl)butanamide]

Ki (EphA4 LBD [1]): 1000 to 5000 nM
Molecule: NCCCC(=O)N[C@@H](Cc1c[nH]c2ccc(O)cc12)C(=O)N[C@@H](Cc1ccc(Cl)cc1)C(=O)N[C@@H](Cc1ccncc1)C(=O)NCCc1c[nH]c2ccc(Cl)cc12 [Compound 9, 4-amino-N-((S)-1-((S)-1-((S)-1-(2-(5-chloro-1H-indol-3-yl)ethylamino)-1-oxo-3-(pyridin-4-yl)propan-2-ylamino)-3-(4-chlorophenyl)-1-oxopropan-2-ylamino)-3-(5-hydroxy-1H-indol-3-yl)-1-oxopropan-2-yl)butanamide]

Ki (EphA4 LBD [1]): 1000 to 5000 nM
Kd (EphA4 LBD [2]): < 1000 nM
Molecule: COc1ccc2c(CCNC(=O)[C@H](Cc3ccncc3)NC(=O)[C@H](Cc3ccc(Cl)cc3)NC(=O)[C@H](Cc3c[nH]c4ccc(O)cc34)NC(=O)CCCN)c[nH]c2c1 [Compound 10, 4-amino-N-((S)-1-((S)-3-(4-chlorophenyl)-1-((S)-1-(2-(6-methoxy-1H-indol-3-yl)ethylamino)-1-oxo-3-(pyridin-4-yl)propan-2-ylamino)-1-oxopropan-2-ylamino)-3-(5-hydroxy-1H-indol-3-yl)-1-oxopropan-2-yl)butanamide]

Ki (EphA4 LBD [1]): ≥ 5000 nM
Molecule: NCCCC(=O)N[C@@H](Cc1c[nH]c2ccc(O)cc12)C(=O)N[C@@H](Cc1ccc(Cl)cc1)C(=O)N[C@@H](Cc1ccncc1)C(=O)NCCc1cccc2ccccc12 [Compound 11, 4-amino-N-((S)-1-((S)-3-(4-chlorophenyl)-1-((S)-1-(2-(naphthalen-1-yl)ethylamino)-1-oxo-3-(pyridin-4-yl)propan-2-ylamino)-1-oxopropan-2-ylamino)-3-(5-hydroxy-1H-indol-3-yl)-1-oxopropan-2-yl)butanamide]

Kd [5]: < 1000 nM
Ki [6]: 500 to 660 nM
Kd (EphA4-LBD mutant 159G): 3660 nM
Kd (EphA4-LBD mutant 159A): 9090 nM
Kd [7]: 450 nM
Molecule: Compound 7: 4-amino-N-((S)-1-((S)-3-(4-chlorophenyl)-1-((S)-1-(2-(5-methoxy-1H-indol-3-yl)ethylamino)-1-oxo-3-(pyridin-4-yl)propan-2-ylamino)-1-oxopropan-2-ylamino)-3-(5-hydroxy-1H-indol-3-yl)-1-oxopropan-2-yl)butanamide (peptide)

Ki [8]: > 5000 nM
Molecule: Compound 11: 4-amino-N-((S)-1-((S)-3-(4-chlorophenyl)-1-((S)-1-(2-(naphthalen-1-yl)ethylamino)-1-oxo-3-(pyridin-4-yl)propan-2-ylamino)-1-oxopropan-2-ylamino)-3-(5-hydroxy-1H-indol-3-yl)-1-oxopropan-2-yl)butanamide (peptide)

Molecule: KYLPYWPVLSSL
Kd for EphA4 (reported peptides) (EphA4): low micromolar range
